Reference: patent publication US8349870B2 (priority 2008, dated 2013)
Where two headings read alike, the source gives them in different places.

Tests used:
Format in all cases: in vivo
[1] = system: Plasmopara viticola; test: Test A: grape downy mildew, spray after inoculation, visual disease rating (% disease control); conditions: 100 = 100% disease control, 0 = no control
Source text: General protocol for preparing test suspensions for Test A-C: The test compounds were first dissolved in acetone in an amount equal to 3% of the final volume and then suspended at the desired concentration (in ppm) in acetone and purified water (50/50 mix by volume) containing 250 ppm of the surfactant Trem® 014 (polyhydric alcohol esters). The resulting test suspensions were then used in Tests A-C. Spraying a 200 ppm test suspension to the point of run-off on the test plants was equivalent to a rate of 500 g/ha.
Grape seedlings were inoculated with a spore suspension of Plasmopara viticola (the causal agent of grape downy mildew) and incubated in a saturated atmosphere at 20° C. for 24 h. After a short drying period, the test suspension was sprayed to the point of run-off on the grape seedlings, which were then moved to a growth chamber at 20° C. for 5 days, after which time the grape seedling were placed back into a saturated atmosphere at 20° C. for 24 h. Upon removal, visual disease ratings were made.
Results for Tests A-C are given in Table A. In the table, a rating of 100 indicates 100% disease control and a rating of 0 indicates no disease control (relative to the controls). A dash (-) indicates no test results, “*” indicates compound was tested at 40 ppm and “**” indicates compound was tested at 10 ppm.

[2] = system: Phytophthora infestans; conditions: tomato late blight, sprayed 17 h after inoculation
[3] = system: Phytophthora infestans; conditions: tomato late blight, sprayed the day before inoculation

| Compound | Test A rating (% disease control) ([1]; "*" compound tested at 40 ppm) | Test C rating (% disease control) ([2]; "*" compound tested at 40 ppm) | Test B rating (% disease control) ([3]; "*" compound tested at 40 ppm) | Test A rating (% disease control) ([1]; "**" compound tested at 10 ppm) | Test C rating (% disease control) ([2]; "**" compound tested at 10 ppm) | Test B rating (% disease control) ([3]; "**" compound tested at 10 ppm) |
| --- | --- | --- | --- | --- | --- | --- |
| Cc1ccc(C)c(N=C(C#N)N2CCC(c3nc(C4=NOC(c5ccccc5)C4)cs3)CC2)c1 (stereo not drawn) [compound 32] | 31% | 0% | 58% | – | – | – |
| Cc1ccc(C)c(S(=O)(=O)NC(=O)N2CCC(c3nc(C4=NOC(c5ccccc5)C4)cs3)CC2)c1 (stereo not drawn) [compound 33] | 0% | 0% | 0% | – | – | – |
| CONC(=Nc1cc(C)ccc1C)N1CCC(c2nc(C3=NOC(c4c(F)cccc4F)C3)cs2)CC1 (stereo not drawn) [compound 34] | 100% | 97% | 100% | – | – | – |
| CNC(=Nc1cc(C)ccc1C)N1CCC(c2nc(C3=NOC(c4c(F)cccc4F)C3)cs2)CC1 (stereo not drawn) [compound 35] | 0% | 26% | 86% | – | – | – |
| Cc1ccc(C)c(C(=O)NC(=O)N2CCC(c3nc(C4=NOC(c5c(F)cccc5F)C4)cs3)CC2)c1 (stereo not drawn) [compound 36] | 0% | 99% | 99% | – | – | – |
| Cc1ccc(C)c(C(=O)NC(=O)N2CCC(c3nc(C4=NOC(c5ccccc5F)C4)cs3)CC2)c1 (stereo not drawn) [compound 37] | 0% | 0% | 63% | – | – | – |
| Cc1ccc(C)c(N=C(N(C)C)N2CCC(c3nc(C4=NOC(c5c(F)cccc5F)C4)cs3)CC2)c1 (stereo not drawn) [compound 38] | 8% | 0% | 33% | – | – | – |
| CCONC(=Nc1cc(C)ccc1C)N1CCC(c2nc(C3=NOC(c4c(F)cccc4F)C3)cs2)CC1 (stereo not drawn) [compound 39] | 99% | 97% | 100% | – | – | – |
| Cc1ccc(C)c(C(=O)C(=O)N2CCC(c3nc(C4=NOC(c5ccccc5F)C4)cs3)CC2)c1 (stereo not drawn) [compound 40] | 99% | 98% | 100% | – | – | – |
| Cc1cc(C(F)(F)F)nn1C(=O)C(=O)N1CCC(c2nc(C3=NOC(c4ccccc4F)C3)cs2)CC1 (stereo not drawn) [compound 41] | 17% | 0% | 26% | – | – | – |
| Cc1ccc(C)c(N=C(NC#N)N2CCC(c3nc(C4=NOC(c5c(F)cccc5F)C4)cs3)CC2)c1 (stereo not drawn) [compound 42] | 99% | 99% | 100% | – | – | – |
| Cc1cc(C(F)(F)F)nn1C(=O)C(=O)N1CCC(c2nc(C3=NOC(c4c(F)cccc4F)C3)cs2)CC1 (stereo not drawn) [compound 43] | 0% | 0% | 25% | – | – | – |
| O=C(C(=O)N1CCC(c2nc(C3=NOC(c4ccccc4F)C3)cs2)CC1)c1ccccc1 (stereo not drawn) [compound 45] | 0% | 0% | 0% | – | – | – |
| O=C(C(=O)N1CCC(c2nc(C3=NOC(c4ccccc4F)C3)cs2)CC1)c1cccs1 (stereo not drawn) [compound 46] | 0% | 0% | 0% | – | – | – |
| O=C(C(=O)N1CCC(c2nc(C3=NOC(c4ccccc4F)C3)cs2)CC1)c1ccco1 (stereo not drawn) [compound 47] | 85% | 0% | 33% | – | – | – |
| CCC(O)C(=O)N1CCC(c2nc(C3=NOC(c4c(F)cccc4F)C3)cs2)CC1 (stereo not drawn) [compound 48] | 88% | 91% | 100% | – | – | – |
| CC(C)C(O)C(=O)N1CCC(c2nc(C3=NOC(c4c(F)cccc4F)C3)cs2)CC1 (stereo not drawn) [compound 49] | 97% | 100% | 98% | – | – | – |

| Compound | Test A rating (% disease control) ([1]; "*" compound tested at 40 ppm) | Test C rating (% disease control) ([2]; "*" compound tested at 40 ppm) | Test B rating (% disease control) ([3]; "*" compound tested at 40 ppm) | Test A rating (% disease control) ([1]; "**" compound tested at 10 ppm) | Test C rating (% disease control) ([2]; "**" compound tested at 10 ppm) | Test B rating (% disease control) ([3]; "**" compound tested at 10 ppm) |
| --- | --- | --- | --- | --- | --- | --- |
| Cc1cc(C)c(C(=O)C(=O)N2CCC(c3nc(C4=NOC(c5ccccc5F)C4)cs3)CC2)c(C)c1 (stereo not drawn) [compound 51] | 0% | 0% | 52% | – | – | – |
| Cc1ccc(C)c(C(=O)C(=O)N2CCC(c3nc(C4=NOC(c5c(F)cccc5F)C4)cs3)CC2)c1 (stereo not drawn) [compound 52] | 100% | 96% | 100% | – | – | – |
| CS(=O)(=O)CC(=O)N1CCC(c2nc(C3=NOC(c4c(F)cccc4F)C3)cs2)CC1 (stereo not drawn) [compound 62] | 99% | 95% | 99% | – | – | – |
| N#CCC(=O)N1CCC(c2nc(C3=NOC(c4c(F)cccc4F)C3)cs2)CC1 (stereo not drawn) [compound 63] | 94% | 92% | 100% | – | – | – |
| CC(=O)OCC(=O)N1CCC(c2nc(C3=NOC(c4c(F)cccc4F)C3)cs2)CC1 (stereo not drawn) [compound 64] | 80% | 68% | 100% | – | – | – |
| CC(=O)C(=O)N1CCC(c2nc(C3=NOC(c4c(F)cccc4F)C3)cs2)CC1 (stereo not drawn) [compound 65] | 88% | 99% | 100% | – | – | – |
| CCCC(=O)C(=O)N1CCC(c2nc(C3=NOC(c4c(F)cccc4F)C3)cs2)CC1 (stereo not drawn) [compound 67] | 100% | 99% | 100% | – | – | – |
| CC(C)C(=O)C(=O)N1CCC(c2nc(C3=NOC(c4c(F)cccc4F)C3)cs2)CC1 (stereo not drawn) [compound 68] | 99% | 93% | 100% | – | – | – |
| CC(C)CC(=O)C(=O)N1CCC(c2nc(C3=NOC(c4c(F)cccc4F)C3)cs2)CC1 (stereo not drawn) [compound 69] | 99% | 64% | 84% | – | – | – |
| CCC(C)C(=O)C(=O)N1CCC(c2nc(C3=NOC(c4c(F)cccc4F)C3)cs2)CC1 (stereo not drawn) [compound 70] | 100% | 88% | 100% | – | – | – |
| O=C(C(=O)N1CCC(c2nc(C3=NOC(c4c(F)cccc4F)C3)cs2)CC1)c1ccco1 (stereo not drawn) [compound 72] | 100% | 99% | 100% | – | – | – |
| CCCCCCC(=O)N1CCC(c2nc(C3=NOC(c4c(F)cccc4F)C3)cs2)CC1 (stereo not drawn) [compound 73] | 99% | 99% | 100% | – | – | – |
| O=C(COCC(F)(F)F)N1CCC(c2nc(C3=NOC(c4c(F)cccc4F)C3)cs2)CC1 (stereo not drawn) [compound 74] | – | – | – | 100% | 97% | 10% |
| O=C(COCCC(F)(F)F)N1CCC(c2nc(C3=NOC(c4c(F)cccc4F)C3)cs2)CC1 (stereo not drawn) [compound 75] | – | – | – | 100% | 97% | 100% |
| O=C(CC1CCCC(C(F)(F)F)C1)N1CCC(c2nc(C3=NOC(c4c(F)cccc4F)C3)cs2)CC1 (stereo not drawn) [compound 76] | 66% | 0% | 67% | – | – | – |
| O=C(CCOCC(F)(F)F)N1CCC(c2nc(C3=NOC(c4c(F)cccc4F)C3)cs2)CC1 (stereo not drawn) [compound 77] | – | – | – | 100% | 99% | 100% |
| methyl 4-[4-(4,5-dihydro-5-phenyl-3-isoxazoly)-2-thiazolyl]-N-(2,5-dimethylphenyl)-1-piperidinecarboximidate [Example 3] | 99% | 99% | 100% | – | – | – |
